Patent US20050049299A1, “Selective inhibitors of stat-3 activation and uses thereof” (priority 2003, published 2005)

What was measured:
Type in all cases: cell-based, human
STAT3 phosphorylation = test: IL-6-induced STAT3 phosphorylation in JMAR cells (Western blot)
Description: JMAR cells (2×10^6 cells) were treated with IL-6 (10 ng/ml) for the indicated time and whole cell extracts were prepared. These extracts (30 μg) were resolved on 7.5% SDS-PAGE, electrotransferred to a nitrocellulose membrane and probed for p-STAT3 (upper panel) and stripped and re-probed for STAT3 (lower panel). […] JMAR cells were pretreated with curcumin (50 μM) for indicated durations and stimulated with IL-6 (10 ng/ml) for 10 mins and whole cell extract prepared and probed as mentioned earlier.
JMAR cells were treated with IL-6 for different durations and the levels of p-STAT3 and STAT3 were examined. Treatment with IL-6 as early as 5 mins induced STAT3 phosphorylation in JMAR cells (FIG. 14A, upper panel). However, STAT3 levels were unaffected (FIG. 14A, lower panel).
Further, since IL-6 induced STAT3 phosphorylation in JMAR cells, the ability of curcumin to inhibit this STAT3 phosphorylation was also examined. JMAR cells were pretreated with curcumin for different durations and stimulated with IL-6 for 10 minutes. Both the status of p-STAT3 and STAT3 were determined in the whole cell extracts of these cells. Treatment with curcumin for as early as 30 minutes led to decline in the phosphorylation of STAT3 which declined further with increased exposure to curcumin. Exposure to curcumin for 2 hours inhibited STAT3 phosphorylation in JMAR cells (FIG. 14B, upper panel). The STAT3 levels were unaffected by this treatment (FIG. 14B, lower panel).

U266 cells = test: IL-6-induced proliferation of U266 cells (thymidine incorporation, MTT); conditions: curcumin 10 μM, 48 h, serum-free; thymidine incorporation and MTT
Description: (§1) FIGS. 7A-B show& that IL-6 induces proliferation of human multiple myeloma cells and curcumin inhibits it. […] Cell proliferation assays were performed as described below. Results are shown as mean (±s.d.) of percent [^3H] thymidine incorporation or percent proliferation by MTT of triplicate cultures compared to the untreated control.
(§2) The antiproliferative effects of curcumin against different multiple myeloma cell lines were determined by the MTT dye uptake method as described earlier (28). Briefly, the cells (5000/well) were incubated in triplicate in a 96-well plate in the presence or absence of indicated test samples in a final volume of 0.1 ml for 24 h at 37° C. […] The OD at 570 nm was measured using a 96-well multiscanner autoreader (Dynatech MR 5000), with the extraction buffer serving as blank. Percent cell viability cell viability was calculated using the following formula: Percent cell viability=(OD of the experiment samples/OD of the control)×100.
(§3) The antiproliferative effects of curcumin were also monitored by the thymidine incorporation method. […] Six hours before the completion of experiment, cells were pulse treated with 0.5 μCi [^3H]thymidine, and the uptake of [^3H]thymidine was monitored using a Matrix-9600 β-counter (Packard Instruments, Downers Grove, Ill.). […]
(§4) Whether curcumin suppresses the proliferative effects of IL-6 was determined.

MM.1R cells = test: IL-6-induced proliferation of MM.1R cells; conditions: curcumin 10 μM, 48 h, serum-free
Description: as §1, §2, §3, §4

[1] = test system: STAT3 nuclear translocation; test: Immunocytochemistry for STAT3 localization in U266 cells; conditions: 50 μM, 60 minutes
Description: U266 cells were incubated alone or with curcumin (50 μM) for 60 minutes and then analyzed for the distribution of STAT3 by immunocytochemistry (originial magnification, 200X).
FIGS. 6A-C show& the effect of cell permeable STAT3 inhibitor peptide (STAT3iP) on STAT3 phosphorylation and cell viability in U266 cells. […] Results are shown as mean (±s.d. indicated by error bar) of absorbance (570 nm) of triplicate cultures compared to the untreated control.
Curcumin-treated multiple myeloma cells were plated on a glass slide by centrifugation using a Cytospin 4 (Thermoshendon, Pittsburg, Pa.), air-dried for 1 h at room temperature, and fixed with cold acetone. After a brief washing in PBS, slides were blocked with 5% normal goat serum for 1 h and then incubated with rabbit polyclonal anti-human STAT3 antibody (dilution, 1:100). After overnight incubation, the slides were washed and then incubated with goat anti-rabbit IgG-Alexa 594 (1:100) for 1 h and counter-stained for nuclei with Hoechst (50 ng/ml) for 5 min. Stained slides were mounted with mounting medium (Sigma Co.) and analyzed under an epifluorescence microscope (Labophot-2, Nikon, Tokyo, Japan). Pictures were captured using Photometrics Coolsnap CF color camera (Nikon, Lewisville, Tex.) and MetaMorph version 4.6.5 software (Universal Imaging Corp., Downingtown, Pa.). […]

MM.1S and MM.1R cells = test: Cell growth of dexamethasone-sensitive and dexamethasone-resistant MM cells (MTT); conditions: curcumin 10 μM, 3 days
Description: MM.1S and MM.1R cells were cultured with dexamethasone (1 μM) in the absence or presence of curcumin (10 μM) for 3 days and cell viability was checked by the MTT method. Results are shown as mean (±s.d. indicated by error bar) of percent cell growth of triplicate cultures compared to the untreated control.
The antiproliferative effects of curcumin against different multiple myeloma cell lines were determined by the MTT dye uptake method as described earlier (28). Briefly, the cells (5000/well) were incubated in triplicate in a 96-well plate in the presence or absence of indicated test samples in a final volume of 0.1 ml for 24 h at 37° C. Thereafter, 0.025 ml of MTT solution (5 mg/ml in PBS) was added to each well. After a 2-h incubation at 37° C., 0.1 ml of the extraction buffer (20% SDS, 50% dimethylformamide) was added and the extract incubated overnight at 37° C. for solubilization of formazan crystals. The OD at 570 nm was measured using a 96-well multiscanner autoreader (Dynatech MR 5000), with the extraction buffer serving as blank. Percent cell viability cell viability was calculated using the following formula: Percent cell viability=(OD of the experiment samples/OD of the control)×100.
Multiple myeloma treated with dex gradually develops resistance to this drug.

[2] = 50 μM curcumin, IL-6 10 ng/ml 10 min

For `COc1cc(/C=C/C(=O)CC(=O)/C=C/c2ccc(O)c(OC)c2)ccc1O` [curcumin, diferuloylmethane], the “earliest treatment time leading to decline of IL-6-induced STAT3 phosphorylation” value (STAT3 phosphorylation; [2]) was 30 min, the “exposure that inhibited IL-6-induced STAT3 phosphorylation” value (STAT3 phosphorylation; [2]) was 2 h and the STAT3 levels (STAT3 phosphorylation; curcumin pretreatment plus IL-6) was “unaffected”. The “IL-6-induced proliferation of U266 cells” value (U266 cells) was “completely inhibited”, the “IL-6-induced cell proliferation in MM.1R cells” value (MM.1R cells) was “inhibited IL-6-induced cell proliferation” and the “translocation of STAT3 to the nucleus” value [1] was “prevented the translocation of the STAT3 to the nucleus”. The “proliferation of dex-resistant and dex-sensitive multiple myeloma cells” value (MM.1S and MM.1R cells) was “inhibited the proliferation of dex-resistant and dex-sensitive multiple myeloma cells similarly”.
